Measured values: patent publication US20210347727A1 (BLADE THERAPEUTICS, INC., priority 2017, published 2021)
pIC50: −log10 of the molar value.

Columns and labels:
[1] = molecular target: T1, Human Calpain 1/NS1 (Homo sapiens, UniProt P07384); assay: Biochemical inhibition of calpain 1, continuous fluorescence (FRET substrate) assay; conditions: mean; read-out: Human Calpain 1/NS1 IC50 (nM)_MEAN
T1 sequence (P07384 1-714): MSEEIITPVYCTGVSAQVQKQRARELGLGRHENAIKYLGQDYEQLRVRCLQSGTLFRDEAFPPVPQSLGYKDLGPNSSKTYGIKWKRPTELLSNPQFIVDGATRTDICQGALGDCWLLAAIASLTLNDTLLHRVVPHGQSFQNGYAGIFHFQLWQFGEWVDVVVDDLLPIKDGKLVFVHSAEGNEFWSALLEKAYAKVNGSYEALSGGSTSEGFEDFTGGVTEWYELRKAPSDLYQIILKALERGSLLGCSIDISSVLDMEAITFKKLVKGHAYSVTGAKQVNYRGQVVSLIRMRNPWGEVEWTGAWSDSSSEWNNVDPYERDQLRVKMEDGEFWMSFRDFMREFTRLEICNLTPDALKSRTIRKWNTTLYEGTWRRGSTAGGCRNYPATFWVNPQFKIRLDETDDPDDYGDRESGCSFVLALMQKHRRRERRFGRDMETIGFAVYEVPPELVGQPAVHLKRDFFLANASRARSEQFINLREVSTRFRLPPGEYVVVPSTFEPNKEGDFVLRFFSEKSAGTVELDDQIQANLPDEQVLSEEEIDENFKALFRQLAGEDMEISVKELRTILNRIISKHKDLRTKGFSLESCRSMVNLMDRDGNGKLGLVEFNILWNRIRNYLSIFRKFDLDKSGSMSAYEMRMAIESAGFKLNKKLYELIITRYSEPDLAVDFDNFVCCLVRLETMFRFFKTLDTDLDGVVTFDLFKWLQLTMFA
T1 sequence (P04632 1-268 partner): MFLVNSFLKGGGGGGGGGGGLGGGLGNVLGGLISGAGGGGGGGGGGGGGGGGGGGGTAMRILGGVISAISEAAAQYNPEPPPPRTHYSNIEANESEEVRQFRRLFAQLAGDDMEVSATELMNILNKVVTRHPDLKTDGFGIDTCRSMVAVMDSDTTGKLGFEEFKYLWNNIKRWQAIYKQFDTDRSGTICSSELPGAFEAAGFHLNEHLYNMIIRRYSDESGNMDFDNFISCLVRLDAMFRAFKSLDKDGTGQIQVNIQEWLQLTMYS
How it was run: (§1)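 Calpains preincubated with inhibitor at 25 °C in 50 mM Tris pH 7.5, 100 mM NaCl, 1 mM DTT; reaction started with 5-FAM/QXL520 FRET peptide plus CaCl2 for activation. Fluorescence (ex 490/em 520 nm) followed 10 min; rates from 1–5 min slopes, IC50 by 4-parameter logistic fit.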

[2] = molecular target: T2, Human Calpain 9/NS1 (Homo sapiens, UniProt O14815); assay: Biochemical inhibition of calpain 9, continuous fluorescence (FRET substrate) assay; conditions: mean; read-out: Human Calpain 9/NS1 IC50 (nM)_MEAN
T2 sequence (O14815 1-690): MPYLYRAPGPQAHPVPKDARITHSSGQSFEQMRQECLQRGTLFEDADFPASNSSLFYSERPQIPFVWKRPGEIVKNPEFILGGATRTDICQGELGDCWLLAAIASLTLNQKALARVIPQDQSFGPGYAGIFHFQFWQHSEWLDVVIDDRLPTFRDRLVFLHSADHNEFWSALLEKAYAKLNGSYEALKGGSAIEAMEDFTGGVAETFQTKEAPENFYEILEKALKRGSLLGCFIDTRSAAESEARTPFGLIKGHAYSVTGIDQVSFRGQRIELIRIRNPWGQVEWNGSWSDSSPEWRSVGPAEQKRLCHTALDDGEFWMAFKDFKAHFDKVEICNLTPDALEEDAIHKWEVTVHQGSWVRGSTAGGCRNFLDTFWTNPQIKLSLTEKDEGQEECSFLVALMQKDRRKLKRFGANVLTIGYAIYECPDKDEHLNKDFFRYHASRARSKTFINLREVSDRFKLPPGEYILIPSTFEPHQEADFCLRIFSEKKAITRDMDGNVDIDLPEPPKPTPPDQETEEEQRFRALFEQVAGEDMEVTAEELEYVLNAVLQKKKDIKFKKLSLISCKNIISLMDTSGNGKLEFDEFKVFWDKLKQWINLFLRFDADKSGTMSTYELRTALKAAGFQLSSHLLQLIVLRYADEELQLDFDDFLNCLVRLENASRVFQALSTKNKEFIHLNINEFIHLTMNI
T2 sequence (P04632 1-268 partner): T1 sequence (P04632 1-268 partner)
How it was run: as §1

[3] = molecular target: T3, Human Calpain 2/NS1 (Homo sapiens, UniProt P17655); assay: Biochemical inhibition of calpain 2, continuous fluorescence (FRET substrate) assay; conditions: mean; read-out: Human Calpain 2/NS1 1C50 [sic] (nM)_MEAN
T3 sequence (P17655 1-700): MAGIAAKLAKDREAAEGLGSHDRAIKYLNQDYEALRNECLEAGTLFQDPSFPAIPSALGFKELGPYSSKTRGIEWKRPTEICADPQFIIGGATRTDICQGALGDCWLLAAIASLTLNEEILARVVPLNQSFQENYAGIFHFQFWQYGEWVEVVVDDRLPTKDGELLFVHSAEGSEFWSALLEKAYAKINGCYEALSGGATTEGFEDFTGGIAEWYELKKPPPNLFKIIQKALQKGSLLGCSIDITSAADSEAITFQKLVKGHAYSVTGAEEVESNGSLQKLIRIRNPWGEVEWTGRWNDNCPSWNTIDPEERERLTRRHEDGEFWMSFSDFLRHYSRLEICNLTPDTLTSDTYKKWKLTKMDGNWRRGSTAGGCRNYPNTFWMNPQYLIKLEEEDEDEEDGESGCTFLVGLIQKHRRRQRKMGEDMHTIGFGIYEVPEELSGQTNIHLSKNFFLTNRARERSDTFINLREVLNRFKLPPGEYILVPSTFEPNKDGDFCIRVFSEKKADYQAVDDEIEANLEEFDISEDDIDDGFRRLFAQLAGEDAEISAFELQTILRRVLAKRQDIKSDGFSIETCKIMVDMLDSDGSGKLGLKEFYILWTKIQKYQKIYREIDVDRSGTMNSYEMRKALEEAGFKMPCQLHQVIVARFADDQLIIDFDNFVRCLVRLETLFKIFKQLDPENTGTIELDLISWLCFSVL
T3 sequence (P04632 1-268 partner): T1 sequence (P04632 1-268 partner)
How it was run: as §1

[4] = system: calpain activity in SH-SY5Y cells (Spectrin); assay: SH-SY5Y Spectrin cellular calpain inhibition; assay type: cell-based
[5] = system: calpain activity in SH-SY5Y cells; assay: SH-SY5Y cellular calpain activity, Suc-LLVY-AMC fluorescence assay; assay type: cell-based; conditions: Suc-LLVY-AMC substrate
How it was run: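 SH-SY5Y cells (1% serum, seeded overnight at 37 C) pre-incubated 30 min with serially diluted compound, then given 100 uM cell-permeable Suc-LLVY-AMC. AMC fluorescence followed continuously on FLIPR; slopes taken as calpain activity, and IC50 from 4-parameter logistic fit of slope versus log concentration.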

## O=CC(Cc1ccccc1)NC(=O)c1c(Cl)cccc1Cl (centres unmarked) [Compound 45, 2,6-DICHLORO-N-(1-OXO-3-PHENYLPROPAN-2-YL)BENZAMIDE]
[1]
  IC50: < 3000 nM
[2]
  IC50: < 3000 nM
[3]
  IC50: < 3000 nM
[4]
  pIC50: 4.60 to 5.00
[5]
  pIC50: > 5.00

## O=CC(Cc1ccccc1)NC(=O)c1cccc2c1oc1ccccc12 (centres unmarked) [Compound 46, N-(1-OXO-3-PHENYLPROPAN-2-YL)DIBENZO[b,a]FURAN-4-CARBOXAMIDE]
[1]
  IC50: 3000 to 10000 nM
[2]
  IC50: 3000 to 10000 nM
[3]
  IC50: < 3000 nM
[4]
  pIC50: 4.60 to 5.00
[5]
  pIC50: < 4.60

## Cn1c2ccccc2c2c(C(=O)NC(C=O)Cc3ccccc3)cccc21 (centres unmarked) [Compound 47, 9-METHYL-N-(1-OXO-3-PHENYLPROPAN-2-YL)-9H-CARBAZOLE-4-CARBOXAMIDE]
[1]
  IC50: < 3000 nM
[2]
  IC50: < 3000 nM
[3]
  IC50: < 3000 nM
[4]
  pIC50: < 4.60
[5]
  pIC50: > 5.00

## O=CC(Cc1ccccc1)NC(=O)c1cccc2c1Oc1ccccc1O2 (centres unmarked) [Compound 48]
[1]
  IC50: < 3000 nM
[2]
  IC50: < 3000 nM
[3]
  IC50: < 3000 nM
[4]
  pIC50: < 4.60
[5]
  pIC50: < 4.60
